Measured values published in article PMC6874179, “Development of Macrocycle Kinase Inhibitors for ALK2 Using Fibrodysplasia Ossificans Progressiva‐Derived Endothelial Cells” (JBMR Plus, 2019).

Columns and labels:
Experiment in all cases: Proqinase Kinase profiling
Format in all cases: biochemical
Settings in all cases: read-out: % inhibition at 100nM
RET_S891A = molecular target: T1, RET_S891A (Homo sapiens, UniProt P07949, S891A)
T1 construct: purchased DiscoverX

CAMK2A = molecular target: T2, CAMK2A (Homo sapiens, UniProt Q9UQM7)
T2 construct: purchased DiscoverX

MAP4K5 = molecular target: T3, MAP4K5 (Homo sapiens, UniProt Q9Y4K4)
T3 construct: purchased DiscoverX

CSNK1G1 = molecular target: T4, CSNK1G1 (Homo sapiens, UniProt Q9HCP0)
T4 construct: purchased DiscoverX

GRK4 = molecular target: T5, GRK4 (Homo sapiens, UniProt P32298)
T5 construct: purchased DiscoverX

TLK1 = molecular target: T6, TLK1 (Homo sapiens, UniProt Q9UKI8)
T6 construct: purchased DiscoverX

MAP3K11 = molecular target: T7, MAP3K11 (Homo sapiens, UniProt Q16584)
T7 construct: purchased DiscoverX

DAPK3 = molecular target: T8, DAPK3 (Homo sapiens, UniProt O43293)
T8 construct: purchased DiscoverX

RPS6KA1 = molecular target: T9, RPS6KA1 (Homo sapiens, UniProt Q15418)
T9 construct: purchased DiscoverX

HIPK4 = molecular target: T10, HIPK4 (Homo sapiens, UniProt Q8NE63)
T10 construct: purchased DiscoverX

ABL1_E255K = molecular target: T11, ABL1_E255K (Homo sapiens, UniProt P00519, E255K)
T11 construct: purchased DiscoverX

ITK = molecular target: T12, ITK (Homo sapiens, UniProt Q08881)
T12 construct: purchased DiscoverX

TAOK2 = molecular target: T13, TAOK2 (Homo sapiens, UniProt Q9UL54)
T13 construct: purchased DiscoverX

PDGFRB = molecular target: T14, PDGFRB (Homo sapiens, UniProt P09619)
T14 construct: purchased DiscoverX

PASK = molecular target: T15, PASK (Homo sapiens, UniProt Q96RG2)
T15 construct: purchased DiscoverX

CDK6_cyclinD1 = molecular target: T16, CDK6_cyclinD1 (Homo sapiens, UniProt Q00534)
T16 construct: purchased DiscoverX

MAPK10 = molecular target: T17, MAPK10 (Homo sapiens, UniProt P53779)
T17 construct: purchased DiscoverX

CHUK = molecular target: T18, CHUK (Homo sapiens, UniProt O15111)
T18 construct: purchased DiscoverX

RPS6KA6 = molecular target: T19, RPS6KA6 (Homo sapiens, UniProt Q9UK32)
T19 construct: purchased DiscoverX

PAK1 = molecular target: T20, PAK1 (Homo sapiens, UniProt Q13153)
T20 construct: purchased DiscoverX

PTK2 = molecular target: T21, PTK2 (Homo sapiens, UniProt Q05397)
T21 construct: purchased DiscoverX

DSTYK = molecular target: T22, DSTYK (Homo sapiens, UniProt Q6XUX3)
T22 construct: purchased DiscoverX

RPS6KB1 = molecular target: T23, RPS6KB1 (Homo sapiens, UniProt P23443)
T23 construct: purchased DiscoverX

SYK = molecular target: T24, SYK (Homo sapiens, UniProt P43405)
T24 construct: purchased DiscoverX

CHEK2 = molecular target: T25, CHEK2 (Homo sapiens, UniProt O96017)
T25 construct: purchased DiscoverX

TYK2 = molecular target: T26, TYK2 (Homo sapiens, UniProt P29597)
T26 construct: purchased DiscoverX

JAK3 = molecular target: T27, JAK3 (Homo sapiens, UniProt P52333)
T27 construct: purchased DiscoverX

MYLK2 = molecular target: T28, MYLK2 (Homo sapiens, UniProt Q9H1R3)
T28 construct: purchased DiscoverX

JAK1 = molecular target: T29, JAK1 (Homo sapiens, UniProt P23458)
T29 construct: purchased DiscoverX

PRKG1 = molecular target: T30, PRKG1 (Homo sapiens, UniProt Q13976)
T30 construct: purchased DiscoverX

SRC = molecular target: T31, SRC (Homo sapiens, UniProt P12931)
T31 construct: purchased DiscoverX

EPHA2 = molecular target: T32, EPHA2 (Homo sapiens, UniProt P29317)
T32 construct: purchased DiscoverX

LTK = molecular target: T33, LTK (Homo sapiens, UniProt P29376)
T33 construct: purchased DiscoverX

SRMS = molecular target: T34, SRMS (Homo sapiens, UniProt Q9H3Y6)
T34 construct: purchased DiscoverX

MARK2 = molecular target: T35, MARK2 (Homo sapiens, UniProt Q7KZI7)
T35 construct: purchased DiscoverX

KIT_V559D_V654A = molecular target: T36, KIT_V559D_V654A (Homo sapiens, UniProt P10721, V559D/V654A)
T36 construct: purchased DiscoverX

PDGFRA = molecular target: T37, PDGFRA (Homo sapiens, UniProt P16234)
T37 construct: purchased DiscoverX

ZAP70 = molecular target: T38, ZAP70 (Homo sapiens, UniProt P43403)
T38 construct: purchased DiscoverX

MET_Y1230C = molecular target: T39, MET_Y1230C (Homo sapiens, UniProt P08581, Y1230C)
T39 construct: purchased DiscoverX

EGFR_T790M = molecular target: T40, EGFR_T790M (Homo sapiens, UniProt P00533, T790M)
T40 construct: purchased DiscoverX

ALK_F1174S = molecular target: T41, ALK_F1174S (Homo sapiens, UniProt Q9UM73, F1174S)
T41 construct: purchased DiscoverX

KIT_T670I = molecular target: T42, KIT_T670I (Homo sapiens, UniProt P10721, T670I)
T42 construct: purchased DiscoverX

FES = molecular target: T43, FES (Homo sapiens, UniProt P07332)
T43 construct: purchased DiscoverX

T40 sequence (P00533 25-1210 T790M): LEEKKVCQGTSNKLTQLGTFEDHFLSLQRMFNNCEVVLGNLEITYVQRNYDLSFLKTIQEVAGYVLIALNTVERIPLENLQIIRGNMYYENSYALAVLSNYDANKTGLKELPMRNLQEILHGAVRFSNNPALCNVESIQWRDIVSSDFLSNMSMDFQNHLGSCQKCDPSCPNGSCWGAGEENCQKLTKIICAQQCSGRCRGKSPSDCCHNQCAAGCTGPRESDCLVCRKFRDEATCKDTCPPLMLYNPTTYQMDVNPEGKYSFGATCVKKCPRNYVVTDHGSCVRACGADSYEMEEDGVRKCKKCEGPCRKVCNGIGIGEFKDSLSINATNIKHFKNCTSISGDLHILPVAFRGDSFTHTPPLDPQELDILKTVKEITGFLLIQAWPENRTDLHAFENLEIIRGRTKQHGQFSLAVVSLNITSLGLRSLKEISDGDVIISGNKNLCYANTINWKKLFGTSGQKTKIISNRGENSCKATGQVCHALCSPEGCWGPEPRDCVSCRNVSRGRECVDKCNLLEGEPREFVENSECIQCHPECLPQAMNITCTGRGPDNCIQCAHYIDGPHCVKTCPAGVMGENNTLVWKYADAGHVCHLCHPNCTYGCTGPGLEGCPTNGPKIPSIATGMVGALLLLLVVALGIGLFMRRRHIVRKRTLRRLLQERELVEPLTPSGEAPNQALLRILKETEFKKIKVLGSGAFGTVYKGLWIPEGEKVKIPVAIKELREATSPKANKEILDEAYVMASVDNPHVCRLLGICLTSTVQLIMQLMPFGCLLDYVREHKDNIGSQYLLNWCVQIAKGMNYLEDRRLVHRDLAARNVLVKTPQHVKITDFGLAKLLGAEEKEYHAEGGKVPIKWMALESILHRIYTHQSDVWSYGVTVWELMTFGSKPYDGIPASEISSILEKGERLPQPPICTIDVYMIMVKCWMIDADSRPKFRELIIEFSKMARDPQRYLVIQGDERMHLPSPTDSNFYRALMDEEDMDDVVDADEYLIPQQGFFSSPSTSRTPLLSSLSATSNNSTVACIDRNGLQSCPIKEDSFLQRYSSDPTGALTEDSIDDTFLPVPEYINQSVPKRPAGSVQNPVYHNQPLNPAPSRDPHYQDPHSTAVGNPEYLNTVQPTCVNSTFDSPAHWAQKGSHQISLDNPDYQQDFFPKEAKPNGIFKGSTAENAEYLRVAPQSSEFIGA
T19 sequence (Q9UK32 whole entry): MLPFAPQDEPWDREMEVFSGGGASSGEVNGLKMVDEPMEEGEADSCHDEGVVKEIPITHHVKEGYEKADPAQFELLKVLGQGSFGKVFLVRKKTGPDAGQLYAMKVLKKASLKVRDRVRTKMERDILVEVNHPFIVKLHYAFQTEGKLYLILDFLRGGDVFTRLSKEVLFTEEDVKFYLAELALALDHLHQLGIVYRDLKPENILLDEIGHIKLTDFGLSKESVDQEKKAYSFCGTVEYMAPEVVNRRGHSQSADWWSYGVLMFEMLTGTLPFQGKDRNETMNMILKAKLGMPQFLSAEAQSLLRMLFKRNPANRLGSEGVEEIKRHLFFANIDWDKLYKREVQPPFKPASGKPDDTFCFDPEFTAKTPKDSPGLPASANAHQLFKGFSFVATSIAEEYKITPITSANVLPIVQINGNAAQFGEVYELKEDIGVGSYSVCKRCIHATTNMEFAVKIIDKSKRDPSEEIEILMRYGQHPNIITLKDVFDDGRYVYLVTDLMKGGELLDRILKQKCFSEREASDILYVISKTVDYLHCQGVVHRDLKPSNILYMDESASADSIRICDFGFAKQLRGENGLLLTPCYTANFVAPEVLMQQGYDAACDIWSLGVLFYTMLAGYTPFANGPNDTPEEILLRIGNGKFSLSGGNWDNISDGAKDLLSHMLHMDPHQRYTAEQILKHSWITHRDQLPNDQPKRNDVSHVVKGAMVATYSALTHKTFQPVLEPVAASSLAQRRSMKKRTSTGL
T39 sequence (P08581 25-1390 Y1230C): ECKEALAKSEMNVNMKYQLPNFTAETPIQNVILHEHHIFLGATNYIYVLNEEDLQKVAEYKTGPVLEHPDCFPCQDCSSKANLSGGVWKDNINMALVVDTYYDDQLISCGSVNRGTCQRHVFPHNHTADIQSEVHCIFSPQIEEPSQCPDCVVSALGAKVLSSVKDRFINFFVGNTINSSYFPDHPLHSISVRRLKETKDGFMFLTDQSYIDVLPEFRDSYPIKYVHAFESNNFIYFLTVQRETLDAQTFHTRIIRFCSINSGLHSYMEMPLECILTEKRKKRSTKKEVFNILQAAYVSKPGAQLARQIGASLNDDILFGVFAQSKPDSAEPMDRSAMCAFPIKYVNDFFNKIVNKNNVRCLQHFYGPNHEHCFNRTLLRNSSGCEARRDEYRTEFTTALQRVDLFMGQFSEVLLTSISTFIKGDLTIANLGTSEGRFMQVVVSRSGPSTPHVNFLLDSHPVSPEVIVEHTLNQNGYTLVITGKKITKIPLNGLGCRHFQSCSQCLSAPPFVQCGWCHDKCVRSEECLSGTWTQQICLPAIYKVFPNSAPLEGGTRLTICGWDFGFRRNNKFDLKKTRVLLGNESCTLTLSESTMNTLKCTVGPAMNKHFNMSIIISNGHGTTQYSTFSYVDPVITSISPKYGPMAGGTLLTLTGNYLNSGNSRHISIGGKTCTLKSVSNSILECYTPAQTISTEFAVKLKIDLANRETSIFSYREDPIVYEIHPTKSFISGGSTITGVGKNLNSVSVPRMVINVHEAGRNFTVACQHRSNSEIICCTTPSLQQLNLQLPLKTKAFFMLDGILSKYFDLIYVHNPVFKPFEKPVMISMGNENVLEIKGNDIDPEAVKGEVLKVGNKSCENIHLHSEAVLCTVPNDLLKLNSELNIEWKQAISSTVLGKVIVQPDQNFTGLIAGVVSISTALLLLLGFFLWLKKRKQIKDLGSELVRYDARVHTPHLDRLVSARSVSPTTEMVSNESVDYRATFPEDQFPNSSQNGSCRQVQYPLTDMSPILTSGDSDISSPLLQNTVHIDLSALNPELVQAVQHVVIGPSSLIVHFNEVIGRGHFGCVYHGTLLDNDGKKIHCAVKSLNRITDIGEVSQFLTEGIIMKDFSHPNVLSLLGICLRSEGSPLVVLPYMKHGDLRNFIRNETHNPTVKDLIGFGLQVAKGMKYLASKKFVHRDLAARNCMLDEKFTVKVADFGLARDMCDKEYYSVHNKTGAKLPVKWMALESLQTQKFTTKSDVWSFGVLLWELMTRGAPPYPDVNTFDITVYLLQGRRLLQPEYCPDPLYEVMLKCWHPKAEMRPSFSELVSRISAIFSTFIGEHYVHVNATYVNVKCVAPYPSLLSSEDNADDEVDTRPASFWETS
T11 sequence (P00519 whole entry E255K): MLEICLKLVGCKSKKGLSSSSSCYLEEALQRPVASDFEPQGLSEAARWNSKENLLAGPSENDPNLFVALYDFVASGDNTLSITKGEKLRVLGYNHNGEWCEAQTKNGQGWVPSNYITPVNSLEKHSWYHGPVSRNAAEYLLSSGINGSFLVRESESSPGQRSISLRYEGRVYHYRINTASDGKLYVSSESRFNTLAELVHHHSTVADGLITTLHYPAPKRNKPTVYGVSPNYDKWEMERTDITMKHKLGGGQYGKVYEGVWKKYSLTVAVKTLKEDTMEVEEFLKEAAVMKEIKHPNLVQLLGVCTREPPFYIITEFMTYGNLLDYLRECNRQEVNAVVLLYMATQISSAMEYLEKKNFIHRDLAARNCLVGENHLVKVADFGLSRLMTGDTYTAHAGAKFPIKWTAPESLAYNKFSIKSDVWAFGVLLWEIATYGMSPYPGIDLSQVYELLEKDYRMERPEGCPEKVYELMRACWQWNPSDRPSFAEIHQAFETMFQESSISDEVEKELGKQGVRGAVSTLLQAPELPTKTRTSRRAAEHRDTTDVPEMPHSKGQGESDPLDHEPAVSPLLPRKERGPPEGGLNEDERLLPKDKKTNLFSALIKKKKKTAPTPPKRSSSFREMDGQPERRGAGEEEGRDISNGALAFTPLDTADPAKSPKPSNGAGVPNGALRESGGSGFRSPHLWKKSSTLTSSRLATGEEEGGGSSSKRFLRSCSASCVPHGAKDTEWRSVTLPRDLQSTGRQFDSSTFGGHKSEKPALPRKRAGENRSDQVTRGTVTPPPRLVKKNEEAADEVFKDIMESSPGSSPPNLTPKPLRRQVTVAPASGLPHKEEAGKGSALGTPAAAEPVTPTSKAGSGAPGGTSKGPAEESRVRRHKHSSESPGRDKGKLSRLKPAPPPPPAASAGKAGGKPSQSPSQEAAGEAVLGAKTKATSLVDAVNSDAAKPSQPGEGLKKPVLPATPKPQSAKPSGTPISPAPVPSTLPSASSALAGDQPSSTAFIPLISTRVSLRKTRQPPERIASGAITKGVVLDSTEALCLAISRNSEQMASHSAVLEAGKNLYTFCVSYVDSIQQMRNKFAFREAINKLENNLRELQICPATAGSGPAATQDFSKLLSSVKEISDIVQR
T20 sequence (Q13153 whole entry): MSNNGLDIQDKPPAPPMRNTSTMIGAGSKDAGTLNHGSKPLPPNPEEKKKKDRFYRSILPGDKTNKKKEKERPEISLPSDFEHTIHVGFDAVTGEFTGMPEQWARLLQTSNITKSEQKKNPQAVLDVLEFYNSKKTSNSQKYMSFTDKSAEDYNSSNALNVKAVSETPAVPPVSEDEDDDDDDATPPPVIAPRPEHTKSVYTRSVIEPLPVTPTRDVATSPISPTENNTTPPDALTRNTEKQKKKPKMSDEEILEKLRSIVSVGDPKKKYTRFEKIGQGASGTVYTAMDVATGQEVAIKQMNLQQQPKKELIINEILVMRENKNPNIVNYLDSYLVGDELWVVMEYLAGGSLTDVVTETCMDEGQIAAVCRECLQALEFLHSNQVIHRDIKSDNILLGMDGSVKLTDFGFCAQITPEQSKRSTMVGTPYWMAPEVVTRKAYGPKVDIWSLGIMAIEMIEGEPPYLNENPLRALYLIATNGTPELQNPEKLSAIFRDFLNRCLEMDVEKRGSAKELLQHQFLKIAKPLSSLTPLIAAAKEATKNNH

## Clc1cc2cc(c1)-c1cnn3ccc(nc13)NCCOCCO2 [OD36]
RET_S891A
  inhibition at 0.1 µM: 63%
CAMK2A
  inhibition at 0.1 µM: 18%
MAP4K5
  inhibition at 0.1 µM: 18%
CSNK1G1
  inhibition at 0.1 µM: 1%
GRK4
  inhibition at 0.1 µM: 16%
TLK1
  inhibition at 0.1 µM: 17%
MAP3K11
  inhibition at 0.1 µM: 30%
DAPK3
  inhibition at 0.1 µM: 16%
RPS6KA1
  inhibition at 0.1 µM: 9%
HIPK4
  inhibition at 0.1 µM: 47%
ABL1_E255K
  inhibition at 0.1 µM: -2%
ITK
  inhibition at 0.1 µM: -6%
TAOK2
  inhibition at 0.1 µM: 15%
PDGFRB
  inhibition at 0.1 µM: 57%
PASK
  inhibition at 0.1 µM: 3%
CDK6_cyclinD1
  inhibition at 0.1 µM: -5%
MAPK10
  inhibition at 0.1 µM: 17%
CHUK
  inhibition at 0.1 µM: 20%
RPS6KA6
  inhibition at 0.1 µM: 8%
PAK1
  inhibition at 0.1 µM: 18%
PTK2
  inhibition at 0.1 µM: 18%
DSTYK
  inhibition at 0.1 µM: 3%
RPS6KB1
  inhibition at 0.1 µM: -9%
SYK
  inhibition at 0.1 µM: -1%
CHEK2
  inhibition at 0.1 µM: 8%
TYK2
  inhibition at 0.1 µM: 14%
JAK3
  inhibition at 0.1 µM: 6%
MYLK2
  inhibition at 0.1 µM: 23%
JAK1
  inhibition at 0.1 µM: 18%
PRKG1
  inhibition at 0.1 µM: 3%
SRC
  inhibition at 0.1 µM: 15%
EPHA2
  inhibition at 0.1 µM: 7%
LTK
  inhibition at 0.1 µM: 6%
SRMS
  inhibition at 0.1 µM: 11%
MARK2
  inhibition at 0.1 µM: 11%
KIT_V559D_V654A
  inhibition at 0.1 µM: -2%
PDGFRA
  inhibition at 0.1 µM: 29%
ZAP70
  inhibition at 0.1 µM: -3%
MET_Y1230C
  inhibition at 0.1 µM: 7%
EGFR_T790M
  inhibition at 0.1 µM: -14%
ALK_F1174S
  inhibition at 0.1 µM: 13%
KIT_T670I
  inhibition at 0.1 µM: 9%
FES
  inhibition at 0.1 µM: 9%

## Cc1cc2cc(c1)-c1cnn3ccc(nc13)NCCNC(=O)CCN(C)C2 [OD52]
RET_S891A
  inhibition at 0.1 µM: 84%
CAMK2A
  inhibition at 0.1 µM: 25%
MAP4K5
  inhibition at 0.1 µM: 19%
CSNK1G1
  inhibition at 0.1 µM: 16%
GRK4
  inhibition at 0.1 µM: 16%
TLK1
  inhibition at 0.1 µM: 16%
MAP3K11
  inhibition at 0.1 µM: 14%
DAPK3
  inhibition at 0.1 µM: 11%
RPS6KA1
  inhibition at 0.1 µM: 10%
HIPK4
  inhibition at 0.1 µM: 10%
ABL1_E255K
  inhibition at 0.1 µM: 7%
ITK
  inhibition at 0.1 µM: 3%
TAOK2
  inhibition at 0.1 µM: 3%
PDGFRB
  inhibition at 0.1 µM: 3%
PASK
  inhibition at 0.1 µM: 3%
CDK6_cyclinD1
  inhibition at 0.1 µM: 2%
MAPK10
  inhibition at 0.1 µM: 1%
CHUK
  inhibition at 0.1 µM: 0%
RPS6KA6
  inhibition at 0.1 µM: 0%
PAK1
  inhibition at 0.1 µM: -1%
PTK2
  inhibition at 0.1 µM: -1%
DSTYK
  inhibition at 0.1 µM: -1%
RPS6KB1
  inhibition at 0.1 µM: -2%
SYK
  inhibition at 0.1 µM: -2%
CHEK2
  inhibition at 0.1 µM: -3%
TYK2
  inhibition at 0.1 µM: -3%
JAK3
  inhibition at 0.1 µM: -3%
MYLK2
  inhibition at 0.1 µM: -4%
JAK1
  inhibition at 0.1 µM: -6%
PRKG1
  inhibition at 0.1 µM: -6%
SRC
  inhibition at 0.1 µM: -6%
EPHA2
  inhibition at 0.1 µM: -6%
LTK
  inhibition at 0.1 µM: -8%
SRMS
  inhibition at 0.1 µM: -9%
MARK2
  inhibition at 0.1 µM: -9%
KIT_V559D_V654A
  inhibition at 0.1 µM: -12%
PDGFRA
  inhibition at 0.1 µM: -12%
ZAP70
  inhibition at 0.1 µM: -13%
MET_Y1230C
  inhibition at 0.1 µM: -13%
EGFR_T790M
  inhibition at 0.1 µM: -17%
ALK_F1174S
  inhibition at 0.1 µM: -18%
KIT_T670I
  inhibition at 0.1 µM: -23%
FES
  inhibition at 0.1 µM: -26%
